Measured values from patent US20250188110A1, “SPECIFIC SMALL MOLECULE INHIBITORS THAT BLOCK KMT9 METHYLTRANSFERASE ACTIVITY AND FUNCTION” (ALBERT-LUDWIGS-UNIVERSITÄT FREIBURG, priority 2021, published 2025).

How the values were obtained:
KMT9 [1] = target: T1, KMT9 (Homo sapiens, UniProt Q9Y5N5); assay: Microscale thermophoresis (MST) KMT9 binding; conditions: microscale thermophoresis, His-tag labelled KMT9 (20 nM); read-out: MST
T1 sequence (Q9Y5N5 1-214): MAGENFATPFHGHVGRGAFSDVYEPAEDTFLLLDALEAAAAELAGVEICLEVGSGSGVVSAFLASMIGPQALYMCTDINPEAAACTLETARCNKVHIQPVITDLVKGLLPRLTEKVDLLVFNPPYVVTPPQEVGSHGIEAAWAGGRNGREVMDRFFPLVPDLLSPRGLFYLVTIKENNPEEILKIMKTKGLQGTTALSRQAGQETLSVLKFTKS
T1 sequence (Q9UI30 1-120 isoform Q9UI30-2 partner): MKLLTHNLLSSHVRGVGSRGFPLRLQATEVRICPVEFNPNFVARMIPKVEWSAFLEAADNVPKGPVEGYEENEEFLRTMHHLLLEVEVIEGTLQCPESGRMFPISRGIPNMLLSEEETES
Outline: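 Kd from microscale thermophoresis: compound series against 20 nM His-KMT9 labelled via RED-Tris-NTA, buffer 25 mM HEPES (pH 7.5)/100 mM NaCl/1 mM DTT/0.05% Tween, 40% MST power, 100% LED. Reported as classes: A ≤10 nM, B >10–100 nM, C >100–1000 nM, D >1000 nM.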

KMT9 [2] = target: T1, KMT9; assay: KMT9 thermal shift assay (SyproOrange); assay type: binding; conditions: ΔTm; 500 µM compound, 2 μM KMT9, 5X SO; read-out: Thermal shift
Outline: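 ΔTm versus DMSO-only control is reported in bins (>20 K, 15–20 K, 10–15 K, ≤10 K), using Tm from Boltzmann sigmoidal fits of SyproOrange melt curves. KMT9 with compound in pH 8.5 BTP buffer containing MgCl2 and DTT was preincubated at 25° C, then ramped 1° C per 15 s up to 95° C.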

KMT9 [3] = target: T1, KMT9; assay: KMT9 methyltransferase inhibition assay, 3H-SAM scintillation (entries 1-154); assay type: biochemical; conditions: entries 1-154: 3H-SAM assay, 25 nM KMT9, 5 μM ETF1
Outline: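 Tritium transfer from SAM (0.3 μM 3H-SAM, 0.7 μM unlabelled, final) to 5 μM ETF1 fragment by 25 nM KMT9 was measured after 2 h at 30° C, pH 8.5. Precipitated peptide was collected on filters and scintillation counted; IC50 came from a four-parameter fit of inhibition normalised to controls.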

`CNc1ncnc2c1ccn2[C@@H]1C[C@H](C[S+]([O-])CCCNCCc2ccccc2)[C@@H](O)[C@H]1O` (stereo partly drawn) [428 (300), (1R,2S,3R,5S)-3-(4-(Methylamino)-7H-pyrrolo[2,3-d]pyrimidin-7-yl)-5-(((3-(phenethylamino)propyl)sulfinyl)methyl) cyclopentane-1,2-diol] was tested, and the Kd (KMT9 [1]) was over 1 µM, the ΔTm at 500 µM (KMT9 [2]) was at most 10 °C and the IC50 (KMT9 [3]) was over 10 µM.
`CNc1ncnc2c1ccn2[C@@H]1C[C@H](CS(=O)(=O)CCCNCCc2ccccc2)[C@@H](O)[C@H]1O` [429 (301), (1R,2S,3R,5S)-3-(4-(Methylamino)-7H-pyrrolo[2,3-d]pyrimidin-7-yl)-5-(((3-(phenethylamino)propyl)sulfonyl)methyl) cyclopentane-1,2-diol] was tested, and the Kd (KMT9 [1]) was over 1 µM, the ΔTm at 500 µM (KMT9 [2]) was at most 10 °C and the IC50 (KMT9 [3]) was over 10 µM.
In the case of `CNc1ncnc2c1ccn2[C@@H]1C[C@H](CSCCN)[C@@H](O)[C@H]1O` [430 (302), (1S,2R,3S,5R)-3-(((2-Aminoethyl)thio)methyl)-5-(4-(methylamino)-7H-pyrrolo[2,3-d]pyrimidin-7-yl) cyclopentane-1,2-diol], the Kd (KMT9 [1]) is reported as over 1 µM, the ΔTm at 500 µM (KMT9 [2]) is reported as at most 10 °C and the IC50 (KMT9 [3]) is reported as over 10 µM.
In the case of `CNc1ncnc2c1ccn2[C@@H]1C[C@H](CSCCNCCc2ccccc2)[C@@H](O)[C@H]1O` [431 (303), (1R,2S,3R,5S)-3-(4-(Methylamino)-7H-pyrrolo[2,3-d]pyrimidin-7-yl)-5-(((2-(phenethylamino)ethyl)thio)methyl) cyclopentane-1,2-diol], the Kd (KMT9 [1]) is reported as over 1 µM, the ΔTm at 500 µM (KMT9 [2]) is reported as at most 10 °C and the IC50 (KMT9 [3]) is reported as over 10 µM.
Compound `CNc1ncnc2c1ccn2[C@@H]1C[C@H](C[S+]([O-])CCNCCc2ccccc2)[C@@H](O)[C@H]1O` (stereo partly drawn) [432 (304), (1R,2S,3R,5S)-3-(4-(Methylamino)-7H-pyrrolo[2,3-d]pyrimidin-7-yl)-5-(((2-(phenethylamino)ethyl)sulfinyl)methyl) cyclopentane-1,2-diol] has a Kd (KMT9 [1]) of over 1 µM, a ΔTm at 500 µM (KMT9 [2]) of at most 10 °C and an IC50 (KMT9 [3]) of over 10 µM.
Work on `CNc1ncnc2c1ccn2[C@@H]1C[C@H](CS(=O)(=O)CCNCCc2ccccc2)[C@@H](O)[C@H]1O` [433 (305), (1R,2S,3R,5S)-3-(4-(Methylamino)-7H-pyrrolo[2,3-d]pyrimidin-7-yl)-5-(((2-(phenethylamino)ethyl)sulfonyl)methyl) cyclopentane-1,2-diol] yielded a Kd (KMT9 [1]) of over 1 µM, a ΔTm at 500 µM (KMT9 [2]) of at most 10 °C and an IC50 (KMT9 [3]) of over 10 µM.
`CNc1ncnc2c1ccn2[C@@H]1C[C@H](CNC[C@H]2CCCNC2)[C@@H](O)[C@H]1O` [436 (308), (1R,2S,3R,5R)-3-[4-(Methylamino)pyrrolo[2,3-d]pyrimidin-7-yl]-5-({[(3S)-piperidin-3-ylmethyl]amino}methyl) cyclopentane-1,2-diol] showed a Kd (KMT9 [1]) of over 1 µM, a ΔTm at 500 µM (KMT9 [2]) of at most 10 °C and an IC50 (KMT9 [3]) of over 10 µM.
`CNc1ncnc2c1ccn2[C@@H]1C[C@H](CN(CCCN)c2cncs2)[C@@H](O)[C@H]1O` [437 (309), (1S,2R,3R,5R)-3-{[(3-Aminopropyl)(1,3-thiazol-5-yl)amino]methyl}-5-[4-(methylamino)pyrrolo[2,3-d]pyrimidin-7-yl]cyclopentane-1,2-diol] showed a Kd (KMT9 [1]) of over 1 µM, a ΔTm at 500 µM (KMT9 [2]) of at most 10 °C and an IC50 (KMT9 [3]) of 1 to 10 µM.
In the case of `CNc1ncnc2c1ccn2[C@@H]1C[C@H](CN(C[C@H]2CCCNC2)c2cncs2)[C@@H](O)[C@H]1O` [438 (310), (1R,2S,3R,5R)-3-[4-(Methylamino)pyrrolo[2,3-d]pyrimidin-7-yl]-5-({[(3S)-piperidin-3-ylmethyl](1,3-thiazol-5-yl)amino}methyl) cyclopentane-1,2-diol], the Kd (KMT9 [1]) is reported as over 1 µM, the ΔTm at 500 µM (KMT9 [2]) is reported as at most 10 °C and the IC50 (KMT9 [3]) is reported as over 10 µM.
Work on `CNc1ncnc2c1ccn2[C@@H]1C[C@H](CN(CCCNCCc2ccccc2)c2cncs2)[C@@H](O)[C@H]1O` [439 (311), (1R,2S,3R,5R)-3-(4-(Methylamino)-7H-pyrrolo[2,3-d]pyrimidin-7-yl)-5-(((3-(phenethylamino)propyl)(thiazol-5-yl)amino)methyl) cyclopentane-1,2-diol] yielded a Kd (KMT9 [1]) of over 1 µM, a ΔTm at 500 µM (KMT9 [2]) of at most 10 °C and an IC50 (KMT9 [3]) of 1 to 10 µM.
